Assay [1] concerns the target Bifunctional 3'-5' exonuclease/ATP-dependent helicase WRN (Homo sapiens, UniProt Q14191). Kind of assay: ADP-Glo Kinase Assay. The protocol: ATPase activity was measured using the ADP-Glo Kinase Assay following the manufacturers recommended protocol.
In general terms: ADP-Glo first removes unused ATP, then detects ADP through luciferase.

Assay [2] deals with T1, Bifunctional 3'-5' exonuclease/ATP-dependent helicase WRN [480-1251] (UniProt Q14191).
T1 construct: 480-1251
Kind of assay: Biochemical Activity Assays.

Usually IC50 stands for the concentration that inhibits the measured activity by half. Higher therefore signals lower potency.

The structures appear in SMILES notation.

T1 sequence (Q14191 480-1251): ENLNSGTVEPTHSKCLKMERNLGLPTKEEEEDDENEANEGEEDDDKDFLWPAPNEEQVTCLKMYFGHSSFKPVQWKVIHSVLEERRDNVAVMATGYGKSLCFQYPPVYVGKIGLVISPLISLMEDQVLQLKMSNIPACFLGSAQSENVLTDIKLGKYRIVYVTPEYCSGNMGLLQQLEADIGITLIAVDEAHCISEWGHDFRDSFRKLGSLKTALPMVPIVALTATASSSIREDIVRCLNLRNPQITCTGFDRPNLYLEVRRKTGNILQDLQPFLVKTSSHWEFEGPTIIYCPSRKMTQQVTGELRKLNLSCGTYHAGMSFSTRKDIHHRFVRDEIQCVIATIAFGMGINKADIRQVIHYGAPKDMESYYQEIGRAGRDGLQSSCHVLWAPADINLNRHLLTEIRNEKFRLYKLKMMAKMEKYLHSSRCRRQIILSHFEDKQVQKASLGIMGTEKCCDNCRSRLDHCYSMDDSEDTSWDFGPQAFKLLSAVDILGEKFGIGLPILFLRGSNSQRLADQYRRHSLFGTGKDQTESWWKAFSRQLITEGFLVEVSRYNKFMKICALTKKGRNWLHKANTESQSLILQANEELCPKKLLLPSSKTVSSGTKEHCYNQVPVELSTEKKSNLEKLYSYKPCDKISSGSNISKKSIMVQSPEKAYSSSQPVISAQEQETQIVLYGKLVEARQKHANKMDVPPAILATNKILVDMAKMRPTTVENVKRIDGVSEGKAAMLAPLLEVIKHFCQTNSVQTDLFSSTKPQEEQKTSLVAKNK
Bifunctional 3'-5' exonuclease/ATP-dependent helicase WRN, sequence (Q14191 whole entry): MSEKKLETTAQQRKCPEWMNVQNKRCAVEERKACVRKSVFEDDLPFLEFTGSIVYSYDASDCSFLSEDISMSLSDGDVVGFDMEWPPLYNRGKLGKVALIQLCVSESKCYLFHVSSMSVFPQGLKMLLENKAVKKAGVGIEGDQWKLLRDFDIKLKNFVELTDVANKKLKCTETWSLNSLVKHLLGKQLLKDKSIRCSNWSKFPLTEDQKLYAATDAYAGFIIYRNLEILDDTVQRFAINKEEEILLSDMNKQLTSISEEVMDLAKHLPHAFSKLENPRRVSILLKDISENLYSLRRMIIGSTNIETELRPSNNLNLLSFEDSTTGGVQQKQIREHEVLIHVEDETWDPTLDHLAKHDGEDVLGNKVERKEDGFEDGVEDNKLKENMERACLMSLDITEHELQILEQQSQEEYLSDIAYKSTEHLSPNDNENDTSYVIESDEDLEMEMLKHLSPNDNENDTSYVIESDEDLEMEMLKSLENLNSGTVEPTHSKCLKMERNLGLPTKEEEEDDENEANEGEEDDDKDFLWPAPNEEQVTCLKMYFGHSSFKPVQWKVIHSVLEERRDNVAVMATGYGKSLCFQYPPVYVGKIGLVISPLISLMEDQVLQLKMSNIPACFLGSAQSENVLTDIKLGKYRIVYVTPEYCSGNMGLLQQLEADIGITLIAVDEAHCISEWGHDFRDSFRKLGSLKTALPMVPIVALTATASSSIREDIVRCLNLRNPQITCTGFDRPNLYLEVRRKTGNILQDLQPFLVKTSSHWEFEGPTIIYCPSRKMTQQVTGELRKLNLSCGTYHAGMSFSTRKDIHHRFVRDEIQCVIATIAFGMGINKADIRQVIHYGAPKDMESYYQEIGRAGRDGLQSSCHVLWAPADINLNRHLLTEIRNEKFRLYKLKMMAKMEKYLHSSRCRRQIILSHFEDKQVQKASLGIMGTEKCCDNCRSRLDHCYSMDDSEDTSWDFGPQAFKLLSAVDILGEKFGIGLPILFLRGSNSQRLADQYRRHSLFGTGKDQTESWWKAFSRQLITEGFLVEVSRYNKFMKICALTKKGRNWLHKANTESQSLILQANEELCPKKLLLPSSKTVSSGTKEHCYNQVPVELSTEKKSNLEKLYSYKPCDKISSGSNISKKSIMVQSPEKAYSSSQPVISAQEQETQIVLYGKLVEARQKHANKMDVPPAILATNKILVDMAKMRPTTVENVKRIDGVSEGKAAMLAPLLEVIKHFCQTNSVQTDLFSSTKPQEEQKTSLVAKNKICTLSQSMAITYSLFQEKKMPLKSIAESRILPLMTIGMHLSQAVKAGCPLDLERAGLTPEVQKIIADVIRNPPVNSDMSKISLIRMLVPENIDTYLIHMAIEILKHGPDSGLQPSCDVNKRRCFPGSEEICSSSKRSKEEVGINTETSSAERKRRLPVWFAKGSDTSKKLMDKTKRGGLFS

As to `CCc1c(N2CCN(C(=O)c3ncnc(C)c3O)CC2)c(=O)n2nc(-c3ccc4n[nH]cc4c3)nc2n1CC(=O)Nc1ccc(C(F)(F)F)cc1Cl` [WO2025049746, Example 258], the figures for the IC50 in assay [1] and in assay [2] were 16 nM and 15 nM, respectively.

In the case of `CCc1c(N2CCN(C(=O)c3ncnc(C)c3O)CC2)c(=O)n2nc(-c3ccc4ncn(C)c(=O)c4c3)nc2n1CC(=O)Nc1ccc(C(F)(F)F)cc1Cl` [WO2025049746, Example 259], the IC50 in assay [1] and in assay [2] was 29 nM in each case.

In the case of `CCc1c(N2CCN(C(=O)c3ncnc(C)c3O)CC2)c(=O)n2nc(-c3cc4c(cc3F)COCC4)nc2n1CC(=O)Nc1ccc(C(F)(F)F)cc1Cl` [WO2025049746, Example 260], the IC50 was 22 nM in assay [1] and 21 nM in assay [2].

As to `CCc1c(N2CCN(C(=O)c3ncnc(C)c3O)CC2)c(=O)n2nc(-c3ccc4c(c3)CN(C)C4(C)C)nc2n1CC(=O)Nc1ccc(C(F)(F)F)cc1Cl` [WO2025049746, Example 261], the IC50 was 31 nM in assay [1] and 33 nM in assay [2].

Regarding `CCc1c(N2CCN(C(=O)c3ncnc(C)c3O)CC2)c(=O)n2nc(-c3ccc4nn(C(C)C)cc4c3)nc2n1CC(=O)Nc1ccc(C(F)(F)F)cc1Cl` [WO2025049746, Example 262], the IC50 amounted to 30 nM in assay [1] and 31 nM in assay [2].

Regarding `CCc1c(N2CCN(C(=O)c3ncnc(C)c3O)CC2)c(=O)n2nc(-c3ccc4ncncc4c3)nc2n1CC(=O)Nc1ccc(C(F)(F)F)cc1Cl` [WO2025049746, Example 263], the IC50 in assay [1] stood at 24 nM; in assay [2], 23 nM.

Regarding `CCc1c(N2CCN(C(=O)c3ncnc(C)c3O)CC2)c(=O)n2nc(-c3ccc4ncccc4c3)nc2n1CC(=O)Nc1ccc(C(F)(F)F)cc1Cl` [WO2025049746, Example 264], the IC50 was determined as 23 nM in assay [1] and 24 nM in assay [2].

As to `CCc1c(N2CCN(C(=O)c3ncnc(C)c3O)CC2)c(=O)n2nc(-c3ccc4conc4c3)nc2n1CC(=O)Nc1ccc(C(F)(F)F)cc1Cl` [WO2025049746, Example 265], the IC50 in assay [1] and in assay [2] was 40 nM throughout.

For the compound `CCc1c(N2CCN(C(=O)c3ncnc(C)c3O)CC2)c(=O)n2nc(-c3ccc4nscc4c3)nc2n1CC(=O)Nc1ccc(C(F)(F)F)cc1Cl` [WO2025049746, Example 266], the IC50 in assay [1] and in assay [2] was 22 nM throughout.

For `CCc1c(N2CCN(C(=O)c3ncnc(C)c3O)CC2)c(=O)n2nc(-c3ccc(C(=O)N4CCCC4)cc3)nc2n1CC(=O)Nc1ccc(C(F)(F)F)cc1Cl` [WO2025049746, Example 267], the IC50 in assay [1] came out at 26 nM; in assay [2], 23 nM.

Take `CCc1c(N2CCN(C(=O)c3ncnc(C)c3O)CC2)c(=O)n2nc(-c3ccccc3C(=O)NC3CC3)nc2n1CC(=O)Nc1ccc(C(F)(F)F)cc1Cl` [WO2025049746, Example 269]: the IC50 in assay [1] was 61 nM; in assay [2], 63 nM.

Take `CCc1c(N2CCN(C(=O)c3ncnc(C)c3O)CC2)c(=O)n2nc(-c3ccc(S(=O)(=O)N4CCC4)cc3)nc2n1CC(=O)Nc1ccc(C(F)(F)F)cc1Cl` [WO2025049746, Example 270]: the results for the IC50 in assay [1] and in assay [2] were 19 nM and 18 nM, respectively.

Take `CCc1c(N2CCN(C(=O)c3ncnc(C)c3O)CC2)c(=O)n2nc(-c3ccc4c(c3)CC(=O)N4C)nc2n1CC(=O)Nc1ccc(C(F)(F)F)cc1Cl` [WO2025049746, Example 271]: the IC50 stood at 28 nM in assay [1] and 35 nM in assay [2].

`CCc1c(N2CCN(C(=O)c3ncnc(C)c3O)CC2)c(=O)n2nc(-c3ccn4ncc(C)c4c3)nc2n1CC(=O)Nc1ccc(C(F)(F)F)cc1Cl` [WO2025049746, Example 272]: the IC50 in assay [1] was found to be 27 nM; in assay [2], 28 nM.

In the case of `CCc1c(N2CCN(C(=O)c3ncnc(C)c3O)CC2)c(=O)n2nc(-c3cc4c(cc3F)C3(CN(C)C3)OC4)nc2n1CC(=O)Nc1ccc(C(F)(F)F)cc1Cl` [WO2025049746, Example 273], the IC50 came out at 43 nM in assay [1] and 48 nM in assay [2].

Take `CCc1c(N2CCN(C(=O)c3ncnc(C)c3O)CC2)c(=O)n2nc(-c3ccc4c(c3)CO[C@H]4C(F)(F)F)nc2n1CC(=O)Nc1ccc(C(F)(F)F)cc1Cl` [WO2025049746, Example 274]: the concentration for half-maximal inhibition (IC50) in assay [1] amounted to 493 nM; in assay [2] it was 554 nM.

With `CCc1c(N2CCN(C(=O)c3ncnc(C)c3O)CC2)c(=O)n2nc(-c3ccc4c(c3)[C@@H](C(F)(F)F)OC4)nc2n1CC(=O)Nc1ccc(C(F)(F)F)cc1Cl` [WO2025049746, Example 275], the IC50 in assay [1] came to 79 nM; in assay [2], 92 nM.

Turning to `CCc1c(N2CCN(C(=O)c3ncnc(C)c3O)CC2)c(=O)n2nc(-c3ccc4c(c3)CO[C@@H]4C(F)(F)F)nc2n1CC(=O)Nc1ccc(C(F)(F)F)cc1Cl` [WO2025049746, Example 276], the IC50 in assay [1] worked out at 72 nM; in assay [2], 85 nM.

On to `CCc1c(N2CCN(C(=O)c3ncnc(C)c3O)CC2)c(=O)n2nc(-c3ccc4c(c3)[C@H](C(F)(F)F)OC4)nc2n1CC(=O)Nc1ccc(C(F)(F)F)cc1Cl` [WO2025049746, Example 277], for which the IC50 in assay [1] was 176 nM; in assay [2] it was 173 nM.

For the compound `CCc1c(N2CCN(C(=O)c3ncnc(C)c3O)CC2)c(=O)n2nc(-c3ccc4c(c3)COC43COC3)nc2n1CC(=O)Nc1ccc(C(F)(F)F)cc1Cl` [WO2025049746, Example 278], the IC50 in assay [1] stood at 31 nM; in assay [2], 36 nM.

Consider `CCc1c(N2CCN(C(=O)c3ncnc(C)c3O)CC2)c(=O)n2nc(-c3ccc4c(c3)CS(=O)(=O)N4C)nc2n1CC(=O)Nc1ccc(C(F)(F)F)cc1Cl` [WO2025049746, Example 279], for which the IC50 in assay [1] amounted to 26 nM; in assay [2], 29 nM.

Regarding `CCc1c(N2CCN(C(=O)c3ncnc(C)c3O)CC2)c(=O)n2nc(-c3ccc4nccnc4c3)nc2n1CC(=O)Nc1ccc(C(F)(F)F)cc1Cl` [WO2025049746, Example 280], the results for the IC50 in assay [1] and in assay [2] were 28 nM and 31 nM, respectively.

In the case of `CCc1c(N2CCN(C(=O)c3ncnc(C)c3O)CC2)c(=O)n2nc(-c3ccc4c(c3)OCCN4)nc2n1CC(=O)Nc1ccc(C(F)(F)F)cc1Cl` [WO2025049746, Example 281], the IC50 in assay [1] was determined as 27 nM; in assay [2] it was 31 nM.

With `CCc1c(N2CCN(C(=O)c3ncnc(C)c3O)CC2)c(=O)n2nc(-c3cnc4nc(C)oc4c3)nc2n1CC(=O)Nc1ccc(C(F)(F)F)cc1Cl` [WO2025049746, Example 282], the concentration for half-maximal inhibition (IC50) stood at 47 nM in assay [1] and 53 nM in assay [2].

Regarding `CCc1c(N2CCN(C(=O)c3ncnc(C)c3O)CC2)c(=O)n2nc(-c3ccc4occc4c3)nc2n1CC(=O)Nc1ccc(C(F)(F)F)cc1Cl` [WO2025049746, Example 283], the values for the IC50 in assay [1] and in assay [2] were 33 nM and 37 nM, respectively.

As for `CCc1c(N2CCN(C(=O)c3ncnc(C)c3O)CC2)c(=O)n2nc(-c3ccc4nc(N)oc4c3)nc2n1CC(=O)Nc1ccc(C(F)(F)F)cc1Cl` [WO2025049746, Example 284], the figures for the IC50 in assay [1] and in assay [2] were 25 nM and 26 nM, respectively.

Turning to `CCc1c(N2CCN(C(=O)c3ncnc(C)c3O)CC2)c(=O)n2nc(-c3ccc4nc(C)sc4c3)nc2n1CC(=O)Nc1ccc(C(F)(F)F)cc1Cl` [WO2025049746, Example 285], the IC50 in assay [1] came out at 26 nM; in assay [2], 29 nM.

For `CCc1c(N2CCN(C(=O)c3ncnc(C)c3O)CC2)c(=O)n2nc(-c3cc(OC)c4nn(C)cc4c3)nc2n1CC(=O)Nc1ccc(C(F)(F)F)cc1Cl` [WO2025049746, Example 286], the IC50 in assay [1] is 35 nM; in assay [2], 38 nM.

Consider `CCc1c(N2CCN(C(=O)c3ncnc(C)c3O)CC2)c(=O)n2nc(-c3cc(F)c4nn(C)cc4c3)nc2n1CC(=O)Nc1ccc(C(F)(F)F)cc1Cl` [WO2025049746, Example 287], for which the IC50 is 28 nM in assay [1] and 29 nM in assay [2].

As for `CCc1c(N2CCN(C(=O)c3ncnc(C)c3O)CC2)c(=O)n2nc(-c3ccc4scnc4c3)nc2n1CC(=O)Nc1ccc(C(F)(F)F)cc1Cl` [WO2025049746, Example 288], the IC50 came out at 40 nM in assay [1] and 43 nM in assay [2].

For `CCc1c(N2CCN(C(=O)c3ncnc(C)c3O)CC2)c(=O)n2nc(-c3ccc4c(c3)COC43CCOCC3)nc2n1CC(=O)Nc1ccc(C(F)(F)F)cc1Cl` [WO2025049746, Example 289], the IC50 in assay [1] amounted to 53 nM; in assay [2], 56 nM.

As for `CCc1c(N2CCN(C(=O)c3ncnc(C)c3O)CC2)c(=O)n2nc(-c3ccc4nn(C)c(F)c4c3)nc2n1CC(=O)Nc1ccc(C(F)(F)F)cc1Cl` [WO2025049746, Example 290], the figures for the IC50 in assay [1] and in assay [2] were 29 nM and 31 nM, respectively.

Consider `CCc1c(N2CCN(C(=O)c3ncnc(C)c3O)CC2)c(=O)n2nc(-c3cc4cn(C(F)F)nc4cc3F)nc2n1CC(=O)Nc1ccc(C(F)(F)F)cc1Cl` [WO2025049746, Example 291], for which the IC50 in assay [1] came out at 30 nM; in assay [2] it was 31 nM.

For `CCc1c(N2CCN(C(=O)c3ncnc(C)c3O)CC2)c(=O)n2nc(-c3ccc4nn(CC(F)F)cc4c3)nc2n1CC(=O)Nc1ccc(C(F)(F)F)cc1Cl` [WO2025049746, Example 292], the IC50 was 28 nM in assay [1] and 29 nM in assay [2].

For `CCc1c(N2CCN(C(=O)c3ncnc(C)c3O)CC2)c(=O)n2nc(-c3ccc4c(cnn4CC(F)F)c3)nc2n1CC(=O)Nc1ccc(C(F)(F)F)cc1Cl` [WO2025049746, Example 293], the IC50 in assay [1] worked out at 33 nM; in assay [2], 34 nM.

On to `CCc1c(N2CCN(C(=O)c3ncnc(C)c3O)CC2)c(=O)n2nc(-c3ccc4c(c3)CCN(C)C4)nc2n1CC(=O)Nc1ccc(C(F)(F)F)cc1Cl` [WO2025049746, Example 294], for which the IC50 turned out to be 44 nM in assay [1] and 48 nM in assay [2].

For `CCc1c(N2CCN(C(=O)c3ncnc(C)c3O)CC2)c(=O)n2nc(-c3ccc4nn(C)cc4c3C)nc2n1CC(=O)Nc1ccc(C(F)(F)F)cc1Cl` [WO2025049746, Example 295], the results for the IC50 in assay [1] and in assay [2] were 34 nM and 35 nM, respectively.

For the compound `CCc1c(N2CCN(C(=O)c3ncnc(C)c3O)CC2)c(=O)n2nc(-c3ccc4c(c3)CC(C)(C)N4C(C)=O)nc2n1CC(=O)Nc1ccc(C(F)(F)F)cc1Cl` [WO2025049746, Example 296], the half-maximal inhibitory concentration (IC50) in assay [1] came out at 36 nM; in assay [2] it was 38 nM.

Values taken from BindingDB's records for patent WO2025049746 (Eikon Therapeutics, 2025).
